The subject of assay [1] is Staphylococcus aureus ATCC 700699 (MRSA). The assay can be described thus: minimum inhibitory concentration; extreme values may be limits of the assay. The essentials:
(§1)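 Methicillin-susceptible and methicillin-resistant Staphylococcus aureus were assessed by broth microdilution with a resazurin read-out, compounds spanning 0 to 100 µM and incubated for 24 h at 37°C before 30 µl of 0.015% resazurin was added for 2–4 h. For the minimum inhibitory concentration, the lowest concentration whose well stayed blue rather than pink was recorded.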

Assay [2] relates to Staphylococcus aureus ATCC 29213 (MSSA). The assay is described as above. The essentials: as §1

Values after ≈ are worked out from the molar mass of the structure shown.

`CNc1cc(C)nc(C2CN(C(=O)c3n[nH]c4ccccc34)CCO2)c1` (stereo not drawn): the minimum inhibitory concentration in assay [1] and in assay [2] was over 50 µM in each case.

`O=C(NCCN1CCCC1)c1cc(NCCN2CCOCC2)nc2ccc(Cl)cc12`: the minimum inhibitory concentration in assay [1] and in assay [2] was 50 µM (≈ 21.6 µg/mL) throughout.

In the case of `Cc1cnc(N2CCN[C@@H](Cc3ccccc3)C2)nc1Oc1ccc(-n2ccnc2)cc1`, the minimum inhibitory concentration in assay [1] and in assay [2] was over 50 µM throughout.

In the case of `COc1ccc2nc(C)cc(OCC(=O)NCc3ccccc3)c2c1`, the minimum inhibitory concentration in assay [1] and in assay [2] was over 50 µM throughout.

Regarding `N#CCN(CCCCN1CCN(c2ccc(F)cc2)CC1)C(=O)OCc1ccccc1`, the minimum inhibitory concentration in assay [1] and in assay [2] was over 50 µM in each case.

Take `OC[C@H]1O[C@@H](n2c3ccc(Cl)cc3c3c(-c4cc5ccccc5o4)ncnc32)C(O)[C@H]1O` (stereo partly drawn): the minimum inhibitory concentration in assay [1] and in assay [2] was over 50 µM each time.

In the case of `c1ccc(-c2cc(N3CCCCC3)c3ccccc3n2)nc1`, the minimum inhibitory concentration in assay [1] and in assay [2] was over 50 µM throughout.

Turning to `Cc1nc(-c2ccccn2)nc(N2CCC(Cc3ccccc3)C2)c1Cl` (stereo not drawn), the minimum inhibitory concentration in assay [1] and in assay [2] was over 50 µM throughout.

For the molecule `COc1nc2ccc(Br)cc2cc1[C@@H](c1ccccc1)[C@@](O)(CCN(C)C)c1cccc2ccccc12`, the minimum inhibitory concentration in assay [1] and in assay [2] was over 50 µM throughout.

`CC(C)(C)c1cnc(NC(=O)c2ccccc2O)s1`: the minimum inhibitory concentration in assay [1] and in assay [2] was over 50 µM in each case.

Consider `O=C(Nc1ccccc1)c1ccc(-c2cc3ccncc3cc2OC2CCNCC2)s1`, for which the minimum inhibitory concentration in assay [1] and in assay [2] was 50 µM (≈ 21.5 µg/mL) throughout.

For `COc1ccc(-c2cncc3ccc(C(=O)NCCCn4ccnc4)nc23)cc1`, the minimum inhibitory concentration in assay [1] and in assay [2] was over 50 µM each time.

As for `CC1COC(Cn2cncn2)(c2ccc(Oc3ccc(Cl)cc3)cc2Cl)O1` (stereo not drawn), the minimum inhibitory concentration in assay [1] and in assay [2] was over 50 µM in each case.

`Clc1ccc(Cl)c(CO[C@H]2CCCC[C@@H]2n2ccnc2)c1`: the minimum inhibitory concentration in assay [1] and in assay [2] was over 50 µM throughout.

On to `Cn1ccnc1CNCCS(=O)(=O)c1cccc(Nc2ccc(-c3cccc(F)c3)cn2)c1`, for which the minimum inhibitory concentration in assay [1] and in assay [2] was over 50 µM throughout.

`CC(C)(C)OC(=O)N1CCN(c2cc(-c3ccc(Oc4ccccc4)cc3)n[nH]2)CC1`: the minimum inhibitory concentration in assay [1] and in assay [2] was over 50 µM throughout.

Consider `CN1CCN(c2cc(-c3ccc(F)cc3)nc(-c3ccncc3)n2)CC1`, for which the minimum inhibitory concentration in assay [1] and in assay [2] was over 50 µM throughout.

`O=C(C(Cc1c[nH]c2ccccc12)NS(=O)(=O)c1ccc(Cl)cc1)N1CCCCC1` (stereo not drawn): the minimum inhibitory concentration in assay [1] and in assay [2] was over 50 µM throughout.

For the molecule `Cc1nn(Cc2ccccc2)c(Cl)c1C(=O)NC1CCCCCC1`, the minimum inhibitory concentration in assay [1] and in assay [2] was over 50 µM each time.

For `O=C(NC1CCCCC1)N1CCN(Cc2ccc3c(c2)OCO3)CC1`, the minimum inhibitory concentration in assay [1] and in assay [2] was over 50 µM in each case.

Take `Cc1cc(O)nc(-n2nc(C)cc2C)n1`: the minimum inhibitory concentration in assay [1] and in assay [2] was over 50 µM each time.

As to `CC(=O)N1CCN(c2ccc(Oc3ccc(Cl)cc3O)cc2)CC1`, the minimum inhibitory concentration in assay [1] and in assay [2] was over 50 µM in each case.

Turning to `COc1ccc(N(CCc2cccc(C)n2)C(=O)C2CCCCC2)cc1`, the minimum inhibitory concentration in assay [1] and in assay [2] was over 50 µM each time.

Consider `CC1CCCCN1C(=O)NCCc1coc(-c2ccc(F)cc2)n1` (stereo not drawn), for which the minimum inhibitory concentration in assay [1] and in assay [2] was over 50 µM each time.

Take `N#Cc1nc(-c2ccccc2F)oc1NCCc1ccccc1`: the minimum inhibitory concentration in assay [1] and in assay [2] was over 50 µM each time.

On to `Cc1cc(NCC(C)C)c2[nH]nc(-c3ccccc3)c2n1`, for which the minimum inhibitory concentration in assay [1] and in assay [2] was over 50 µM throughout.

As to `O=C(Nc1ccc2c(c1)B(O)OC2)c1ccccc1C(F)(F)F`, the minimum inhibitory concentration in assay [1] and in assay [2] was over 50 µM throughout.

`COc1cccc(CC(=O)N2CCC(n3c(C)nc4ccc(F)cc43)CC2)c1`: the minimum inhibitory concentration in assay [1] and in assay [2] was over 50 µM throughout.

In the case of `Cc1cc(OCC(=O)NCc2ccccc2)c2cc(Br)ccc2n1`, the minimum inhibitory concentration in assay [1] and in assay [2] was over 50 µM throughout.

For `Cc1cccc(C(=O)Nc2ccnc(N(C)C3CCN(CC(C)C)CC3)c2)c1`, the minimum inhibitory concentration in assay [1] and in assay [2] was over 50 µM in each case.

On to `CC(Oc1ccccc1)C(=O)Nc1nc(-c2ccccn2)cs1` (stereo not drawn), for which the minimum inhibitory concentration in assay [1] and in assay [2] was 50 µM (≈ 16.3 µg/mL) throughout.

Take `CCCNC(=O)N1CCC2(CC1)CC(=O)c1cc(C)ccc1O2`: the minimum inhibitory concentration in assay [1] and in assay [2] was over 50 µM each time.

For the molecule `O=C(C1CCN(c2nnnn2-c2ccccc2)CC1)N1CCc2ccccc2C1`, the minimum inhibitory concentration in assay [1] and in assay [2] was over 50 µM throughout.

`COc1cc(C2=NCCN2)ccc1-c1cn(-c2cccc(C3=NCCN3)c2)nn1`: the minimum inhibitory concentration in assay [1] and in assay [2] was over 50 µM throughout.

Turning to `COc1ccc(-c2nnc3ccc(-c4cccc(C(C)C)c4)cn23)cc1OC`, the minimum inhibitory concentration in assay [1] and in assay [2] was over 50 µM each time.

`N#Cc1nc(-c2ccccc2)oc1S(=O)(=O)c1ccc(Cl)cc1`: the minimum inhibitory concentration in assay [1] and in assay [2] was over 50 µM each time.

Turning to `OCc1ccc(-c2cncc(Nc3cccc(Cl)c3)c2)cc1`, the minimum inhibitory concentration in assay [1] and in assay [2] was over 50 µM in each case.

With `Cc1cccc(NC(=O)c2cc(S(=O)(=O)N(C)c3ccc(F)cc3)ccc2Cl)n1`, the minimum inhibitory concentration in assay [1] and in assay [2] was over 50 µM throughout.

Take `CS(=O)(=O)c1ccccc1C(=O)N(Cc1ccccc1)c1ccccc1`: the minimum inhibitory concentration in assay [1] and in assay [2] was over 50 µM in each case.

With `O=C(NCc1nnc2n1CCCCC2)c1ccc(-c2ccc(F)cc2)o1`, the minimum inhibitory concentration in assay [1] and in assay [2] was over 50 µM throughout.

Take `CCN(CC)S(=O)(=O)c1ccc(C(=O)Nc2cc(C)nn2-c2nc(C)c(C)c(=O)[nH]2)cc1`: the minimum inhibitory concentration in assay [1] and in assay [2] was 50 µM (≈ 22.9 µg/mL) in each case.

As for `COc1ccccc1C(C)NCC(=O)Nc1cc(C(F)(F)F)ccc1Cl` (stereo not drawn), the minimum inhibitory concentration in assay [1] and in assay [2] was over 50 µM throughout.

Turning to `O=C(NCc1ccco1)N1CCN(Cc2ccc(Cl)s2)CC1`, the minimum inhibitory concentration in assay [1] and in assay [2] was over 50 µM in each case.

As to `COc1ccc(C2CC(c3cccs3)=NN2C(=O)c2ccco2)cc1OC` (stereo not drawn), the minimum inhibitory concentration in assay [1] and in assay [2] was over 50 µM throughout.

These data come from the supplement of paper PMC6206229.
